Data on 23 compounds can be found in patent US20250136596A1, “MEMBRANE-ASSOCIATED TYROSINE- AND THREONINE-SPECIFIC CDC2-INHIBITORY KINASE (PKMYT1) INHIBITORS AND USES THEREOF” (Insilico Medicine IP Limited, priority 2022, published 2025).

The experiment has as its target PKMYT1 (Homo sapiens (Human), UniProt Q99640). Nature of the experiment: PKMYT1 HTRF Assay. Type of experiment: binding. Particulars: Tracer 178, GST-Tb; compound 10 μM to 0.5 nM; read-out: MYT1 HTRF IC50. A digest of the protocol:
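Compound (final 10 μM to 0.5 nM) preincubated with PKMYT1 enzyme 15 min at 25° C, then Tracer 178 added for 60 min at 25° C. GST-Tb added, 15 min at 25° C, before HTRF readout.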
(TR-FRET usually uses a lanthanide donor and a delayed reading to cut background.)

pIC50: −log10 of the molar value.

Chain of PKMYT1 (Q99640 whole entry): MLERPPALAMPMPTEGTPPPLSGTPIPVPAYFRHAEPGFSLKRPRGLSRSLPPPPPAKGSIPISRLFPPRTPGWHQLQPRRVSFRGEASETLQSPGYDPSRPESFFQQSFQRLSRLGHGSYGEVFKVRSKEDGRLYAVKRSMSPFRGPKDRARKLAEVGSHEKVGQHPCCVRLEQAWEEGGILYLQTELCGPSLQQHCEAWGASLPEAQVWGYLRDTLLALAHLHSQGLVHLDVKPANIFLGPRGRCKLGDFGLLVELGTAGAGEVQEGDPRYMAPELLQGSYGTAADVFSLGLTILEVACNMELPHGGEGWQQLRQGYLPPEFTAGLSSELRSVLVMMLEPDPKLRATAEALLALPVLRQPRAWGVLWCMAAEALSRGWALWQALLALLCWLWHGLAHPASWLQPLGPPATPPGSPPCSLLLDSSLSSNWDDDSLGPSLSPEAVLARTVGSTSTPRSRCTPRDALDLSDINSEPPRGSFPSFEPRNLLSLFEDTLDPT

By pIC50 is commonly meant the negative decadic logarithm of the IC50, by convention in mol/L. With `Cc1ncc(-c2[nH]c3ncc(-c4c(C)ccc(O)c4C)c(C#N)c3c2C#CC2(O)COC2)cn1` [Example 111, (S)-5-(3-hydroxy-2,6-dimethylphenyl)-3-((3-hydroxyoxetan-3-yl)ethynyl)-2-(2-methylpyrimidin-5-yl)-1H-pyrrolo[2,3-b]pyridine-4-carbonitrile], the pIC50 was greater than 8.00.

With `Cc1ncc(-c2[nH]c3ncc(-c4c(C)ccc(O)c4C)c(C#N)c3c2C(F)(F)F)cn1` [Example 112, 5-(3-hydroxy-2,6-dimethylphenyl)-2-(2-methylpyrimidin-5-yl)-3-(trifluoromethyl)-1H-pyrrolo[2,3-b]pyridine-4-carbonitrile], the pIC50 is 7.30 to 8.00.

`Cc1ncc(-c2[nH]c3ncc(-c4c(C)ccc(O)c4C)c(C#N)c3c2Sc2ccccc2)cn1` [Example 113, 5-(3-hydroxy-2,6-dimethylphenyl)-2-(2-methylpyrimidin-5-yl)-3-(phenylthio)-1H-pyrrolo[2,3-b]pyridine-4-carbonitrile]: the pIC50 was 6.30 to 7.30.

Consider `Cc1ncc(-c2nc3cc(-c4c(C)ccc(O)c4C)cnc3[nH]2)cn1` [Example 114, 2,4-dimethyl-3-(2-(2-methylpyrimidin-5-yl)-3H-imidazo[4,5-b]pyridin-6-yl)phenol], for which the pIC50 was 6.30 to 7.30.

For `Cc1ccc(O)c(C)c1-c1cnc2[nH]c(-c3cnc(NC4CC4)s3)nc2c1` [Example 115, 3-(2-(2-(cyclopropylamino)thiazol-5-yl)-3H-imidazo[4,5-b]pyridin-6-yl)-2,4-dimethylphenol], the pIC50 was 6.30 to 7.30.

Take `Cc1ccc(O)c(C)c1-c1cnc2[nH]c(-c3cnc(N)nc3)nc2c1C#N` [Example 116, (S)-2-(2-aminopyrimidin-5-yl)-6-(3-hydroxy-2,6-dimethylphenyl)-3H-imidazo[4,5-b]pyridine-7-carbonitrile]: the pIC50 was greater than 8.00.

Regarding `Cc1ccc(O)c(C)c1-c1cnc2[nH]c(-c3cnn(CC(C)(C)O)c3)cc2c1C#N` [Example 117, (S)-5-(3-hydroxy-2,6-dimethylphenyl)-2-(1-(2-hydroxy-2-methylpropyl)-1H-pyrazol-4-yl)-1H-pyrrolo[2,3-b]pyridine-4-carbonitrile], the pIC50 was greater than 8.00.

Consider `Cc1ccc(O)c(C)c1-c1cnc2[nH]c(-c3cnn(C)c3)cc2c1C#N` [Example 118, (S)-5-(3-hydroxy-2,6-dimethylphenyl)-2-(1-methyl-1H-pyrazol-4-yl)-1H-pyrrolo[2,3-b]pyridine-4-carbonitrile], for which the pIC50 is greater than 8.00.

Regarding `Cc1ccc(O)c(C)c1-c1cnc2[nH]c(-c3cnoc3)cc2c1C#N` [Example 119, (S)-5-(3-hydroxy-2,6-dimethylphenyl)-2-(isoxazol-4-yl)-1H-pyrrolo[2,3-b]pyridine-4-carbonitrile], the pIC50 was greater than 8.00.

For `Cc1ccc(O)c(C)c1-c1cnc2[nH]c(-c3cc[nH]n3)cc2c1C#N` [Example 120, (S)-5-(3-hydroxy-2,6-dimethylphenyl)-2-(1H-pyrazol-3-yl)-1H-pyrrolo[2,3-b]pyridine-4-carbonitrile], the pIC50 was greater than 8.00.

On to `Cc1ccc(O)c(C)c1-c1cnc2[nH]c(-n3cncn3)cc2c1C#N` [Example 121, (S)-5-(3-hydroxy-2,6-dimethylphenyl)-2-(1H-1,2,4-triazol-1-yl)-1H-pyrrolo[2,3-b]pyridine-4-carbonitrile], for which the pIC50 was greater than 8.00.

Take `Cc1ccc(O)c(C)c1-c1cnc2[nH]c(-n3ccnc3)cc2c1C#N` [Example 122, (S)-5-(3-hydroxy-2,6-dimethylphenyl)-2-(1H-imidazol-1-yl)-1H-pyrrolo[2,3-b]pyridine-4-carbonitrile]: the pIC50 is greater than 8.00.

With `Cc1ccc(O)c(C)c1-c1cnc2[nH]c(-c3cnc4[nH]ncc4c3)cc2c1C#N` [Example 123, (S)-5-(3-hydroxy-2,6-dimethylphenyl)-2-(1H-pyrazolo[3,4-b]pyridin-5-yl)-1H-pyrrolo[2,3-b]pyridine-4-carbonitrile], the pIC50 was greater than 8.00.

Turning to `Cc1ccc(O)c(C)c1-c1cnc2[nH]c(-c3cnc[nH]3)cc2c1C#N` [Example 125, (S)-5-(3-hydroxy-2,6-dimethylphenyl)-2-(1H-imidazol-5-yl)-1H-pyrrolo[2,3-b]pyridine-4-carbonitrile], the pIC50 is greater than 8.00.

As to `Cc1ccc(O)c(C)c1-c1cnc2[nH]c(-c3cnc(N)s3)cc2c1C#N` [Example 126, (S)-2-(2-aminothiazol-5-yl)-5-(3-hydroxy-2,6-dimethylphenyl)-1H-pyrrolo[2,3-b]pyridine-4-carbonitrile], the pIC50 is greater than 8.00.

Regarding `Cc1ccc(O)c(C)c1-c1cnc2[nH]c(-c3cnc(N)nn3)cc2c1C#N` [Example 127, (S)-2-(3-amino-1,2,4-triazin-6-yl)-5-(3-hydroxy-2,6-dimethylphenyl)-1H-pyrrolo[2,3-b]pyridine-4-carbonitrile], the pIC50 is greater than 8.00.

Turning to `Cc1ccc(O)c(C)c1-c1cnc2[nH]c(-c3cnc(N4C[C@@H]5C[C@H]4CO5)nc3)cc2n1` [Example 128, 3-(6-(2-((1S,4S)-2-oxa-5-azabicyclo[2.2.1]heptan-5-yl)pyrimidin-5-yl)-5H-pyrrolo[2,3-b]pyrazin-2-yl)-2,4-dimethylphenol], the pIC50 is greater than 8.00.

Consider `Cc1ccc(O)c(C)c1-c1cnc2[nH]c(-c3cnc(CN)nc3)cc2c1C#N` [Example 129, (S)-2-(2-(aminomethyl)pyrimidin-5-yl)-5-(3-hydroxy-2,6-dimethylphenyl)-1H-pyrrolo[2,3-b]pyridine-4-carbonitrile], for which the pIC50 was greater than 8.00.

With `Cc1ccc(O)c(C)c1-c1cnc2[nH]c(-c3cnc(N)c(C#N)c3)cc2c1C#N` [Example 130, (S)-2-(6-amino-5-cyanopyridin-3-yl)-5-(3-hydroxy-2,6-dimethylphenyl)-1H-pyrrolo[2,3-b]pyridine-4-carbonitrile], the pIC50 is greater than 8.00.

For `Cc1ccc(O)c(C)c1-c1cnc2[nH]c(-c3cnn(CCCO)c3)cc2c1C#N` [Example 131, (S)-5-(3-hydroxy-2,6-dimethylphenyl)-2-(1-(3-hydroxypropyl)-1H-pyrazol-4-yl)-1H-pyrrolo[2,3-b]pyridine-4-carbonitrile], the pIC50 was greater than 8.00.

As for `Cc1ccc(O)c(C)c1-c1cnc2[nH]c(-n3cc(N)cn3)cc2c1C#N` [Example 133, (S)-2-(4-amino-1H-pyrazol-1-yl)-5-(3-hydroxy-2,6-dimethylphenyl)-1H-pyrrolo[2,3-b]pyridine-4-carbonitrile], the negative logarithm of the IC50 (pIC50) is greater than 8.00.

Turning to `Cc1ccc(O)c(C)c1-c1cnc2[nH]c(-c3cn[nH]c(=O)c3)cc2c1C#N` [Example 134], the pIC50 was greater than 8.00.

With `Cc1ccc(O)c(C)c1-c1cnc2[nH]c(-c3nnc[nH]3)cc2c1C#N` [Example 135, 5-(3-hydroxy-2,6-dimethylphenyl)-2-(4H-1,2,4-triazol-3-yl)-1H-pyrrolo[2,3-b]pyridine-4-carbonitrile], the pIC50 is greater than 8.00.
